Assay results published in PMC9668928, “Zandelisib (ME-401) in Japanese patients with relapsed or refractory indolent non-Hodgkin’s lymphoma: an open-label, multicenter, dose-escalation phase 1 study” (International Journal of Hematology, 2022).

Tested on: Japanese patients with R/R iNHL
Assay: Phase 1 dose-escalation study: safety and tolerability (TEAEs, DLTs)
Type: in vivo
Source text: Japanese patients aged ≥ 20 years with R/R iNHL histologically confirmed as FL, nodal MZL, extra-nodal MZL of mucosa-associated lymphoid tissue, small lymphocytic lymphoma, lymphoplasmacytic lymphoma, Waldenström’s macroglobulinemia, or equivalent, according to World Health Organization classification, were eligible for this study. Other key eligibility criteria included being PI3K inhibitor therapy-naïve and an Eastern Cooperative Oncology Group performance status of 0 or 1. Further details of inclusion and exclusion criteria are provided in Supplementary Table 1.
This was a multicenter, open-label, dose-escalation, phase 1 study in Japan. All patients received oral zandelisib once daily at the same time each day, at least 1 h before or 2 h after a meal (CS: continuous schedule). Each treatment cycle was 28 days. Definitions of the DLTs described in this study can be found in Supplementary Table 2. The observation period for DLTs was from day 1 of Cycle 1 to day 1 of Cycle 2. Zandelisib was administered until disease progression or unacceptable toxicity. In the event of an AE, patients could be switched to IDT. In the case of disease progression while receiving IDT, patients could be switched back to CS per the investigator’s discretion.
A starting dose of 45 mg was set for investigating patient safety. This study adopted a standard 3 + 3 design. […] If DLTs occurred in 2 or more patients, the study was planned to be suspended pending a safety evaluation. If a DLT occurred in 1 patient, 3 further patients were added to cohort 1. If DLTs occurred in 0/3 or 1/6 patients in cohort 1, dosing in cohort 2 commenced (n = 6; 60 mg/day). If the incidence of DLTs in cohort 2 was ≤ 1/6, the maximum tolerated dose was not determined, and the dose in cohort 2 was to be selected as the recommended Japanese phase 2 dose.
The primary endpoint was the safety [number of patients with treatment-emergent adverse events (TEAEs), based on Common Terminology Criteria for Adverse Events version 5.0] and tolerability (including laboratory values, vital signs, and electrocardiogram performance) of zandelisib in Japanese patients. Hepatobiliary disorder, aspartate/alanine (AST/ALT) increased, diarrhea/colitis, organizing pneumonia, stomatitis, or rash were defined as irAEs in this manuscript. Secondary endpoints included PK (plasma concentrations and PK parameters) and the efficacy of zandelisib. […] The PK parameters for Cycle 1 day 1 and Cycle 2 day 1 were calculated for each patient by non-compartmental analysis. PK parameters included maximum plasma drug concentration (Cmax), area under the plasma concentration–time curve (AUC) from time zero to the last measurable point (AUC0–t), the AUC from time zero to infinity (AUC0-inf), and terminal half-life (t1/2).

Structure (SMILES): CN1CCC(c2ccccc2CC(C)(C)Nc2nc(N3CCOCC3)nc(-n3c(C(F)F)nc4ccccc43)n2)CC1 [zandelisib]
- TEAE Oropharyngeal pain, Grade ≥ 3 (45 mg, n = 3): 0 n (%)
- TEAE Pancreatitis, All grades (45 mg, n = 3): 1 (33.3) n (%)
- TEAE Pancreatitis, Grade ≥ 3 (45 mg, n = 3): 1 (33.3) n (%)
- TEAE Pharyngeal paresthesia, All grades (45 mg, n = 3): 0 n (%)
- TEAE Pharyngeal paresthesia, Grade ≥ 3 (45 mg, n = 3): 0 n (%)
- TEAE Pruritus, All grades (45 mg, n = 3): 0 n (%)
- TEAE Pruritus, Grade ≥ 3 (45 mg, n = 3): 0 n (%)
- TEAE Psychiatric disorders (SOC), All grades (45 mg, n = 3): 1 (33.3) n (%)
- TEAE Psychiatric disorders (SOC), Grade ≥ 3 (45 mg, n = 3): 0 n (%)
- TEAE Rash maculopapular, All grades (45 mg, n = 3): 1 (33.3) n (%)
- TEAE Rash maculopapular, Grade ≥ 3 (45 mg, n = 3): 0 n (%)
- TEAE Rash, All grades (45 mg, n = 3): 1 (33.3) n (%)
- TEAE Rash, Grade ≥ 3 (45 mg, n = 3): 0 n (%)
- TEAE Renal and urinary disorders (SOC), All grades (45 mg, n = 3): 1 (33.3) n (%)
- TEAE Renal and urinary disorders (SOC), Grade ≥ 3 (45 mg, n = 3): 0 n (%)
- TEAE Renal impairment, All grades (45 mg, n = 3): 1 (33.3) n (%)
- TEAE Renal impairment, Grade ≥ 3 (45 mg, n = 3): 0 n (%)
- TEAE Respiratory, thoracic, and mediastinal disorders (SOC), All grades (45 mg, n = 3): 1 (33.3) n (%)
- TEAE Respiratory, thoracic, and mediastinal disorders (SOC), Grade ≥ 3 (45 mg, n = 3): 1 (33.3) n (%)
- TEAE Skin and subcutaneous tissue disorders (SOC), All grades (45 mg, n = 3): 3 (100.0) n (%)
- TEAE Skin and subcutaneous tissue disorders (SOC), Grade ≥ 3 (45 mg, n = 3): 0 n (%)
- TEAE Stomatitis, All grades (45 mg, n = 3): 1 (33.3) n (%)
- TEAE Stomatitis, Grade ≥ 3 (45 mg, n = 3): 1 (33.3) n (%)
- TEAE Subcutaneous abscess, All grades (45 mg, n = 3): 0 n (%)
- TEAE Subcutaneous abscess, Grade ≥ 3 (45 mg, n = 3): 0 n (%)
- TEAE Tinnitus, All grades (45 mg, n = 3): 1 (33.3) n (%)
- TEAE Tinnitus, Grade ≥ 3 (45 mg, n = 3): 0 n (%)
- TEAE Urticaria, All grades (45 mg, n = 3): 1 (33.3) n (%)
- TEAE Urticaria, Grade ≥ 3 (45 mg, n = 3): 0 n (%)
- TEAE Vomiting, All grades (45 mg, n = 3): 0 n (%)
- TEAE Vomiting, Grade ≥ 3 (45 mg, n = 3): 0 n (%)
- TEAE WBC count decreased, All grades (45 mg, n = 3): 2 (66.7) n (%)
- TEAE WBC count decreased, Grade ≥ 3 (45 mg, n = 3): 0 n (%)
- Grade 3 irAEs (60 mg): 5 patients
- TEAE ALT increased, All grades (60 mg, n = 6): 1 (16.7) n (%)
- TEAE ALT increased, Grade ≥ 3 (60 mg, n = 6): 0 n (%)
- TEAE AST increased, All grades (60 mg, n = 6): 3 (50.0) n (%)
- TEAE AST increased, Grade ≥ 3 (60 mg, n = 6): 0 n (%)
- TEAE Abdominal discomfort, All grades (60 mg, n = 6): 1 (16.7) n (%)
- TEAE Abdominal discomfort, Grade ≥ 3 (60 mg, n = 6): 0 n (%)
- TEAE Abdominal pain upper, All grades (60 mg, n = 6): 0 n (%)
- TEAE Abdominal pain upper, Grade ≥ 3 (60 mg, n = 6): 0 n (%)
- TEAE Amylase increased, All grades (60 mg, n = 6): 0 n (%)
- TEAE Amylase increased, Grade ≥ 3 (60 mg, n = 6): 0 n (%)
- TEAE Anemia, All grades (60 mg, n = 6): 0 n (%)
- TEAE Anemia, Grade ≥ 3 (60 mg, n = 6): 0 n (%)
- TEAE Arthralgia, All grades (60 mg, n = 6): 1 (16.7) n (%)
- TEAE Arthralgia, Grade ≥ 3 (60 mg, n = 6): 0 n (%)
- TEAE Back pain, All grades (60 mg, n = 6): 0 n (%)
- TEAE Back pain, Grade ≥ 3 (60 mg, n = 6): 0 n (%)
- TEAE Blepharitis, All grades (60 mg, n = 6): 1 (16.7) n (%)
- TEAE Blepharitis, Grade ≥ 3 (60 mg, n = 6): 0 n (%)
- TEAE Blood and lymphatic system disorders (SOC), All grades (60 mg, n = 6): 0 n (%)
- TEAE Blood and lymphatic system disorders (SOC), Grade ≥ 3 (60 mg, n = 6): 0 n (%)
- TEAE Blood creatinine increased, All grades (60 mg, n = 6): 1 (16.7) n (%)
- TEAE Blood creatinine increased, Grade ≥ 3 (60 mg, n = 6): 0 n (%)
- TEAE Bradycardia, All grades (60 mg, n = 6): 0 n (%)
- TEAE Bradycardia, Grade ≥ 3 (60 mg, n = 6): 0 n (%)
- TEAE CMV test positive, All grades (60 mg, n = 6): 2 (33.3) n (%)
- TEAE CMV test positive, Grade ≥ 3 (60 mg, n = 6): 0 n (%)
- TEAE Cardiac disorders (SOC), All grades (60 mg, n = 6): 0 n (%)
- TEAE Cardiac disorders (SOC), Grade ≥ 3 (60 mg, n = 6): 0 n (%)
- TEAE Conjunctivitis, All grades (60 mg, n = 6): 1 (16.7) n (%)
- TEAE Conjunctivitis, Grade ≥ 3 (60 mg, n = 6): 0 n (%)
- TEAE Constipation, All grades (60 mg, n = 6): 2 (33.3) n (%)
- TEAE Constipation, Grade ≥ 3 (60 mg, n = 6): 0 n (%)
- TEAE Cough, All grades (60 mg, n = 6): 1 (16.7) n (%)
- TEAE Cough, Grade ≥ 3 (60 mg, n = 6): 0 n (%)
- TEAE Decreased appetite, All grades (60 mg, n = 6): 0 n (%)
- TEAE Decreased appetite, Grade ≥ 3 (60 mg, n = 6): 0 n (%)
- TEAE Diarrhea, All grades (60 mg, n = 6): 2 (33.3) n (%)
- TEAE Diarrhea, Grade ≥ 3 (60 mg, n = 6): 2 (33.3) n (%)
- TEAE Drug hypersensitivity, All grades (60 mg, n = 6): 1 (16.7) n (%)
- TEAE Drug hypersensitivity, Grade ≥ 3 (60 mg, n = 6): 0 n (%)
- TEAE Drug-induced liver injury, All grades (60 mg, n = 6): 1 (16.7) n (%)
- TEAE Drug-induced liver injury, Grade ≥ 3 (60 mg, n = 6): 1 (16.7) n (%)
- TEAE Dry eye, All grades (60 mg, n = 6): 0 n (%)
- TEAE Dry eye, Grade ≥ 3 (60 mg, n = 6): 0 n (%)
- TEAE Dry skin, All grades (60 mg, n = 6): 1 (16.7) n (%)
- TEAE Dry skin, Grade ≥ 3 (60 mg, n = 6): 0 n (%)
- TEAE Dysgeusia, All grades (60 mg, n = 6): 0 n (%)
- TEAE Dysgeusia, Grade ≥ 3 (60 mg, n = 6): 0 n (%)
- TEAE Dyspnea, All grades (60 mg, n = 6): 0 n (%)
- TEAE Dyspnea, Grade ≥ 3 (60 mg, n = 6): 0 n (%)
- TEAE Ear and labyrinth disorders (SOC), All grades (60 mg, n = 6): 0 n (%)
- TEAE Ear and labyrinth disorders (SOC), Grade ≥ 3 (60 mg, n = 6): 0 n (%)
- TEAE Eczema, All grades (60 mg, n = 6): 1 (16.7) n (%)
- TEAE Eczema, Grade ≥ 3 (60 mg, n = 6): 0 n (%)
- TEAE Eosinophil count increased, All grades (60 mg, n = 6): 0 n (%)
- TEAE Eosinophil count increased, Grade ≥ 3 (60 mg, n = 6): 0 n (%)
- TEAE Erythema multiforme, All grades (60 mg, n = 6): 1 (16.7) n (%)
- TEAE Erythema multiforme, Grade ≥ 3 (60 mg, n = 6): 0 n (%)
- TEAE Eye disorders (SOC), All grades (60 mg, n = 6): 1 (16.7) n (%)
- TEAE Eye disorders (SOC), Grade ≥ 3 (60 mg, n = 6): 0 n (%)
- TEAE Flank pain, All grades (60 mg, n = 6): 1 (16.7) n (%)
- TEAE Flank pain, Grade ≥ 3 (60 mg, n = 6): 0 n (%)
- TEAE GGT increased, All grades (60 mg, n = 6): 1 (16.7) n (%)
- TEAE GGT increased, Grade ≥ 3 (60 mg, n = 6): 1 (16.7) n (%)
- TEAE Gastrointestinal disorders (SOC), All grades (60 mg, n = 6): 4 (66.7) n (%)
- TEAE Gastrointestinal disorders (SOC), Grade ≥ 3 (60 mg, n = 6): 2 (33.3) n (%)
- TEAE General disorders and administration site conditions (SOC), All grades (60 mg, n = 6): 0 n (%)
- TEAE General disorders and administration site conditions (SOC), Grade ≥ 3 (60 mg, n = 6): 0 n (%)
- TEAE Hepatic function abnormal, All grades (60 mg, n = 6): 1 (16.7) n (%)
- TEAE Hepatic function abnormal, Grade ≥ 3 (60 mg, n = 6): 1 (16.7) n (%)
- TEAE Hepatobiliary disorders (SOC), All grades (60 mg, n = 6): 2 (33.3) n (%)
- TEAE Hepatobiliary disorders (SOC), Grade ≥ 3 (60 mg, n = 6): 2 (33.3) n (%)
- TEAE Herpes simplex, All grades (60 mg, n = 6): 0 n (%)
- TEAE Herpes simplex, Grade ≥ 3 (60 mg, n = 6): 0 n (%)
- TEAE Herpes zoster, All grades (60 mg, n = 6): 1 (16.7) n (%)
- TEAE Herpes zoster, Grade ≥ 3 (60 mg, n = 6): 0 n (%)
- TEAE Hypoesthesia, All grades (60 mg, n = 6): 0 n (%)
- TEAE Hypoesthesia, Grade ≥ 3 (60 mg, n = 6): 0 n (%)
- TEAE Hypogammaglobulinemia, All grades (60 mg, n = 6): 0 n (%)
- TEAE Hypogammaglobulinemia, Grade ≥ 3 (60 mg, n = 6): 0 n (%)
- TEAE Immune system disorders (SOC), All grades (60 mg, n = 6): 1 (16.7) n (%)
- TEAE Immune system disorders (SOC), Grade ≥ 3 (60 mg, n = 6): 0 n (%)
